Measurements taken from patent US12421232B2, “Kinase inhibitor compounds and compositions and methods of use” (ICAHN SCHOOL OF MEDICINE AT MOUNT SINAI, priority 2018, dated 2025).
Changes are numbered by the printed parent chain. Like-named read-outs stand apart in the source and are kept apart here.

Assays:
Test in all cases: KINOMEscan Assay (DiscoverX)
Assay type in all cases: binding
Details in all cases: read-out: % DMSO Ctrl
FLT3 = biological target: T1, FLT3 (Homo sapiens, UniProt P36888)
T1 construct: purchased DiscoverX
T1 sequence (P36888 27-993): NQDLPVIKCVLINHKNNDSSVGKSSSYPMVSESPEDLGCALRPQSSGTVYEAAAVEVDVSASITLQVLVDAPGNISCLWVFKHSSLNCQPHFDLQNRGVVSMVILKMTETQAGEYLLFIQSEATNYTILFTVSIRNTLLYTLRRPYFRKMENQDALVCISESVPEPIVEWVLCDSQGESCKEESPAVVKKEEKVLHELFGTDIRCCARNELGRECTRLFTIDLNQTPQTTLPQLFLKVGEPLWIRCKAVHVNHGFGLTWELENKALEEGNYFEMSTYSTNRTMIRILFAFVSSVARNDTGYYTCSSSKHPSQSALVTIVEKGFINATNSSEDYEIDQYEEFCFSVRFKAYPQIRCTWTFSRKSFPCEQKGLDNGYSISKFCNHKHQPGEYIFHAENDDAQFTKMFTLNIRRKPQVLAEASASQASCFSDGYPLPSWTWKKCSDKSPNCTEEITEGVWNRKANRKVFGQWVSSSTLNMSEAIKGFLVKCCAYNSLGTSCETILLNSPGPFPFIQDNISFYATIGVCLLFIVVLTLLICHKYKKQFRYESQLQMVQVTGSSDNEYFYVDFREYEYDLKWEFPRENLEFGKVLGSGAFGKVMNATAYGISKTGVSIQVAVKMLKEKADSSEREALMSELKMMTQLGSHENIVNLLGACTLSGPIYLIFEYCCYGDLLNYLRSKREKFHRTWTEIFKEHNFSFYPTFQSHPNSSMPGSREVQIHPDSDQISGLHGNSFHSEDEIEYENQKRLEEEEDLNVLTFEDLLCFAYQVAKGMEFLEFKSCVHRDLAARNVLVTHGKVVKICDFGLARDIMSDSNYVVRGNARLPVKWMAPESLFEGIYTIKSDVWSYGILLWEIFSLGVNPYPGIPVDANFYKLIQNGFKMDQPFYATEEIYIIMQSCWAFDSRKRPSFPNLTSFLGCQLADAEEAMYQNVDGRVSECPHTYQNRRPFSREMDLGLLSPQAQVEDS

FLT3(N841I) = biological target: T2, FLT3(N841I) (Homo sapiens, UniProt P36888, N841I)
T2 construct: purchased DiscoverX
T2 sequence (P36888 27-993 N841I): T1 sequence (P36888 27-993) with N815I

DYRK1B = biological target: T3, DYRK1B (Homo sapiens, UniProt Q9Y463)
T3 construct: purchased DiscoverX

HIPK2 = biological target: T4, HIPK2 (Homo sapiens, UniProt Q9H2X6)
T4 construct: purchased DiscoverX
T4 sequence (Q9H2X6 whole entry): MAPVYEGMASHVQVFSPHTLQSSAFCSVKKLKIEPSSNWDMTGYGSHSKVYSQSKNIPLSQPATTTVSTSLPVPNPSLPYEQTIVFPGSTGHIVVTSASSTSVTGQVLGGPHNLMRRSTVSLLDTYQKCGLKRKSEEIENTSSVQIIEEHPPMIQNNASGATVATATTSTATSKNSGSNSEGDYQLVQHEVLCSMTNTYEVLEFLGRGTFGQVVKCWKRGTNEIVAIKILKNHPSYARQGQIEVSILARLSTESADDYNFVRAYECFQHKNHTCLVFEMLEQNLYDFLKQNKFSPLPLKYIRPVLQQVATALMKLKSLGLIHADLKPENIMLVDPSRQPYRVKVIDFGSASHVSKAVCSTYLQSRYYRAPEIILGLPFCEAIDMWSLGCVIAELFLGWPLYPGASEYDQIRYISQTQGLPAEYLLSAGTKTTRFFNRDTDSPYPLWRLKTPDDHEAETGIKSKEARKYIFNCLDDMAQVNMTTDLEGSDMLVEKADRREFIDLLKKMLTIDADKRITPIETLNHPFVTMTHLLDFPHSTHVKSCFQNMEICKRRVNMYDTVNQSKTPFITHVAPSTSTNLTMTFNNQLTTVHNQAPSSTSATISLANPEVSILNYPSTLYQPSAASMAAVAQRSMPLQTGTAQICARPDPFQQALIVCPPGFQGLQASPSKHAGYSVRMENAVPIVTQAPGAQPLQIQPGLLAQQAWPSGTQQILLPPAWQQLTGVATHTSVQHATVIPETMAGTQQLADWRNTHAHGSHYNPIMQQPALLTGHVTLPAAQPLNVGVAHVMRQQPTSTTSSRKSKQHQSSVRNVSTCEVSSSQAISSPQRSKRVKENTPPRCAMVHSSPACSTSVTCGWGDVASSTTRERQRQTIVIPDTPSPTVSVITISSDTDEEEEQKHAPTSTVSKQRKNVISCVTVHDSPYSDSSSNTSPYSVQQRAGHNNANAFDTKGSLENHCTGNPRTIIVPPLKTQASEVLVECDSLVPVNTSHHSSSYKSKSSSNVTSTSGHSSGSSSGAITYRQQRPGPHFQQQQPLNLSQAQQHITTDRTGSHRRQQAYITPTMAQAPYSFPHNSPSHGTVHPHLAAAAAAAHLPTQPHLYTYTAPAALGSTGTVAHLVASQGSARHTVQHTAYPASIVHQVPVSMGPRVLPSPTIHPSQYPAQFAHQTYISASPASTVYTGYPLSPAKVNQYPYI

T3 sequence (Q9Y463 whole entry): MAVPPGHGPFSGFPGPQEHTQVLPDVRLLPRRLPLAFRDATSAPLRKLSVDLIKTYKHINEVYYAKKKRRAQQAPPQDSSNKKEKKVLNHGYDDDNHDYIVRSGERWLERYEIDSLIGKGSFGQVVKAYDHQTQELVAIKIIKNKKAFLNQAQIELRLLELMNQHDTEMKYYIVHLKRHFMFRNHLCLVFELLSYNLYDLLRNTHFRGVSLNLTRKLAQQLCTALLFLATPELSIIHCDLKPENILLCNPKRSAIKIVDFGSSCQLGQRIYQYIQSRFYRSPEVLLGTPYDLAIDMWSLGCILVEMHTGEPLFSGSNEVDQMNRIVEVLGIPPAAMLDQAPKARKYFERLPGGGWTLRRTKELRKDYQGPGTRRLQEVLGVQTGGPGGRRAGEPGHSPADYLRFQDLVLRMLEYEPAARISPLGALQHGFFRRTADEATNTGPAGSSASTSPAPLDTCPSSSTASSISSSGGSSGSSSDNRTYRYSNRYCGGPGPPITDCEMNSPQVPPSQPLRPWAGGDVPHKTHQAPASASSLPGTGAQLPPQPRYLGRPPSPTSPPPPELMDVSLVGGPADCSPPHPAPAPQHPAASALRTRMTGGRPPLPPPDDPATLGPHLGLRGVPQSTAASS

| Compound | remaining binding at 10 µM (FLT3; FLT3, 10 μM) | remaining binding at 10 µM (FLT3(N841I); FLT3(N841I) mutant, 10 μM) | remaining binding at 10 µM (DYRK1B) | remaining binding at 10 µM (FLT3) | remaining binding at 10 µM (FLT3(N841I)) | remaining binding at 10 µM (HIPK2) | remaining binding at 10 µM (DYRK1B; DYRK1B, 10 μM) | remaining binding at 10 µM (HIPK2; HIPK2, 10 μM) |
| --- | --- | --- | --- | --- | --- | --- | --- | --- |
| COc1ccc2c(c1)[nH]c1c(C)nc(CO)cc12 [Compound 2-8, (1-Methyl-7-methoxy-9H-pyrido[3,4-b]indol-3-yl)methanol] | 100% | 74% |  |  |  |  |  |  |
| COc1ccc2c3ccnc(C)c3n(CCCc3noc(N)n3)c2c1 [Compound 20-13, 3-(3-(7-Methoxy-1-methyl-β-carbolin-9-yl)propyl)-5-amino-1,2,4-oxadiazole] |  |  | 1% | 86% | 78% | 2.3% |  |  |
| C#CCn1c2cc(OC)ccc2c2ccnc(C)c21 [Compound 20-23a, 3-(7-Methoxy-1-methyl-β-carbolin-9-yl)-propan-1-yne] |  |  |  | 65% | 41% |  | 1.1% | 71% |
| COc1ccc2c(c1)[nH]c1c(C)nccc12 [Harmine, reference compound] |  |  | 6.1% |  |  | 8.6% |  |  |
